Assay results taken from patent US20190060320A1, “MEDICAL USE OF PHARMACEUTICAL COMBINATION OR COMPOSITION” (Boehringer Ingelheim International GmbH, priority 2016, published 2019).

Experiment: Multicentre, double-blind, placebo-controlled clinical trial of glycaemic and renal effects of linagliptin in patients with type 2 diabetes and albuminuria
Assay type: in vivo, human
Method: A multicentre, double-blind, placebo-controlled clinical trial investigates glycaemic and renal effects of linagliptin in patients with type 2 diabetes, album inuria and estimated GFR ≥30 ml/min/1.73 m2 (with or without renal function impairment).
A total of 360 patients with type 2 diabetes (HbA1c 6.5-10%) and persistent albuminuria (urinary albumin-to-creatinine ratio [UACR] 30-3000 mg/gCr; i.e. micro- or macro-albuminuria) despite stable background (standard-of-care) of single renin-angiotensin system blockade (ARB or ACE inhibitor) are randomised to either linagliptin 5 mg (n=182) or placebo (n=178) for 24 weeks. Primary glycaemic and key secondary renal surrogate endpoints are HbA1c and UACR change from baseline over 24 weeks, respectively.

Structure (SMILES): CC#CCn1c(N2CCC[C@@H](N)C2)nc2c1c(=O)n(Cc1nc(C)c3ccccc3n1)c(=O)n2C [linagliptin, 1-[(4-methyl-quinazolin-2-yl)methyl]-3-methyl-7-(2-butyn-1-yl)-8-(3-(R)-amino-piperidin-1-yl)-xanthine]
- placebo-adjusted gMean for time-weighted average of % change in UCAR from baseline (over 24 weeks, linagliptin 5 mg vs placebo, 95% CI −15.0, 3.0, NS): −6.0%
- gMean for time-weighted average of % change from baseline in UACR (over 24 weeks, linagliptin 5 mg, 95% CI −16.8, −4.7): −11.0%
- difference in the changes from baseline vs. placebo in urinary albumin to creatinine ratio (UACR), subgroup on a background of metformin (post hoc exploratory subgroup analysis, linagliptin on metformin background (and CKD3, eGFR 30-60) compared to patients without metformin): numerically larger difference
- placebo-adjusted mean HbA1c change from baseline (week 24, linagliptin 5 mg vs placebo, 95% CI −0.78, −0.43, p<0.0001): −0.60%
